Like-named read-outs stand apart in the source and are kept apart here.
Columns and labels:
[1] = biological target: CYP2C9 (Homo sapiens, UniProt P11712); settings: read-out: IC50 toward recombinant CYP2C9 activity; P450-Glo, 50 μM Luciferin H; racemic compounds
Description: Hydroxywarfarins were screened for inhibitory potential toward recombinant CYP2C9 using the Promega (Madison, Wis.) CY2C9 P450-Glo™ Assay using the manufacturer's protocol. These IC50 studies were analyzed on a PerkinElmer Victor^3V™ 1420 Multilabel Counter. Recombinant CYP2C9, 50 nM, was incubated with 50 μM Luciferin H, and six concentrations of each hydroxywarfarin from approximately 10 nM to 4 mM final concentration, as optimized for each compound. The appropriate volume of hydroxywarfarin stocks in 100% ethanol were added to each well prior to addition of the substrate and enzyme, and the ethanol was allowed to evaporate at room temperature to minimize solvent effects on CYP2C9 activity. A final DMSO concentration of 1% was present in the reactions due to the P450-Glo Luciferin H. The reaction was initiated upon addition of an NADPH regenerating solution (BD Biosciences) and quenched with a luciferase quench (Promega) at 30 min.

[2] = biological target: T1, CYP1A2 (Homo sapiens, UniProt P05177); settings: read-out: IC50 for CYP marker reaction; P450-Glo marker reaction
T1 sequence (P05177 1-516): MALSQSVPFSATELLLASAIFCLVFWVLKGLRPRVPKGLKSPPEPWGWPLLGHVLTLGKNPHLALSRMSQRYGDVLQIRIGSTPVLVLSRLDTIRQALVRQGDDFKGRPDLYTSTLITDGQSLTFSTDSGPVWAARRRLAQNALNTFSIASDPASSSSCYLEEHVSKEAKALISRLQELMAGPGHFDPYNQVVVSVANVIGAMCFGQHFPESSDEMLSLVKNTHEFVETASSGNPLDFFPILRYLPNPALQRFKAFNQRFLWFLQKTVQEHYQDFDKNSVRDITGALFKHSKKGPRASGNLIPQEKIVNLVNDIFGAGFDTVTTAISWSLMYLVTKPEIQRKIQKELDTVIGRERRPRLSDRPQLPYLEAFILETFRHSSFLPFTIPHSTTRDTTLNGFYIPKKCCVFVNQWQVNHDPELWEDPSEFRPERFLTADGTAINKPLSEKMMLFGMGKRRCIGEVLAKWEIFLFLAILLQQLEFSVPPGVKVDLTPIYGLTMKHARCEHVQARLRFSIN

[3] = biological target: UGT1A1 (Homo sapiens, UniProt P22309); settings: glucuronidation; racemic OHWars
Description: (§1) The characterization of hepatic and extrahepatic glucuronidation may be made based on glucuronidation studies with 100 commercially available HLM and 100 intestinal microsomal preparations available in our laboratory. […] Both racemic mixtures and separated R and S enantiomers may be assayed. […] Activities of extrahepatic (UGT1A8 and UGT1A10) and hepatic (UGT1A1, UGT1A3, and UGT1A9) isoforms may be compared to that of their respective microsomal preparations, and assign the contribution of specific UGTs to product formation by the human samples.

[4] = biological target: UGT1A10 (Homo sapiens, UniProt Q9HAW8); settings: glucuronidation; racemic OHWars
Description: as §1

[5] = Estimated unbound levels in plasma of long-term warfarin therapy patients; settings: estimated from literature data
[6] = biological target: T2, CYP2C9*1 (Homo sapiens, UniProt P11712); settings: read-out: IC50 for CYP marker reaction; P450-Glo marker reaction
[7] = LC-MS/MS urinary metabolic profile of patients receiving warfarin; settings: for % R / % S (proportion in (S)-enantiomeric form) / % conjugated (proportion glucuronidated) / urinary concentration: urine; for urinary concentration: free and conjugated; for share of (S)-WAR P450 metabolites measured: three urine specimens
Description: All chemicals used in this study were of at least reagent grade. Unless otherwise specified, all chemicals and reagents were purchased from either Sigma-Aldrich (St. Louis, Mo.) or Thermo Fisher Scientific (Waltham, Mass.). […] Ethyl alcohol (100%) was purchased from AAPER (Shelbyville, Ky.). Re-combinant CYP2C9*1, CYP3A4, CYP1A2, and CYP2C19 were expressed in baculovirus-infected insect cells and purchased from BD Biosciences (San Jose, Calif.). Commercially available urine specimens from three females (F84, F85, and F87) were provided by the Emergency Response and Air Toxicants Branch, Division of Laboratory Science National Center for Environmental Health Centers for Disease Control and Prevention (DeKalb County, Ga.). Patient studies were conducted under IRB-approved protocols, and all patients signed informed consent documentation.
This analytical phase was accomplished by reverse-phase HPLC using a 4.6 mm×150 mm C18 Zorbax Eclipse 5 μm XDB-C18 column provided by Agilent (Santa Clara, Calif.). The operating temperature was 40° C., and the sample injection volume was 5.0 μL. HPLC mobile phases consisted H2O (0.1% acetic acid v/v) (A) and methanol (0.1% acetic acid v/v) (B). The flow rate was 1 mL/min. […] The total run time per sample was 10 min. Specific MS/MS experimental conditions used in this study are noted in Table 1.
To determine the relative abundance of the (R)-and (S)-enantiomers of each metabolite, a 4.6 mm×25 cm Chirobiotic V5 μm column supplied by Supelco (Bellefonte, Pa.) was incorporated during the second analytical phase. Mobile phases consisted of H2O (0.1% acetic acid v/v) (A) and acetonitrile (0.1% acetic acid v/v) (B) with a flow rate of 800 μL/min. Enantiomeric separations were accomplished under isocratic conditions (80% A and 20% B). The sample injection volume was 15.0 μL. Enantiomeric MS/MS analyses were performed in negative ion mode by electrospray ionization (ESI) using a Turbo IonSpray source. A total run time of 20 min was required for adequate resolution. Specific MS/MS experimental conditions used in this study are noted in the Table 2.
Each response was normalized to that of the internal standard, 7-hydroxycoumarin (10 μM). […] Measurements of these three metabolites were calculated by taking the difference of the amount measured in the first analytical phase, which contained both (R)-and (S) isomers from the amount of the (S)-isomer measured in the second analytical phase (eq 3). Glucuronidated metabolites were measured by incubating 250 μL of urine with 2000 units of GUS in 100 mM sodium acetate buffer, pH 5.0. The final volume for each of these reactions was 1 mL. Control reactions omitting GUS were included with each sample set. Reactions were incubated overnight at 37° C., after which they were stored at −80° C. Immediately before analysis, both samples were diluted with an equal volume of ethanol containing 7-hydroxycoumarin (10 μM final concentration). The difference between GUS-treated samples and controls represented the amount of glucuronidated metabolites present.

[8] = biological target: CYP2C9 present in the human liver microsomes (Homo sapiens, UniProt P11712); settings: for Ki / Mechanism of inhibition: S-warfarin metabolism
Description: (§2) For each hydroxywarfarin, at least 4 independent experimental replicates were performed.
(§3) MS/MS experimental conditions was used as described previously (6).
(§4) The most probable inhibition mechanism for recombinant CYP2C9 and human liver microsome reactions was identified using DynaFit ver. 3.28 (Biokin, Ltd) (20). Data from each set of hydroxywarfarin experiments were fit to traditional reversible inhibition mechanisms (competitive, uncompetitive, noncompetitive, or mixed). The respective kinetic parameters (Ki and Ki′) were set as variables, while the kinetic parameters (Vmax and Km) were constants based on values obtained from uninhibited reactions. The most probable mechanism was then identified using the Akaike Information Criterion (AICc) for model discrimination (21).

[9] = biological target: T2, CYP2C9*1; settings: for Ki / Mechanism of inhibition: S-warfarin metabolism
Description: as §2, §3, §4

[10] = test system: plasma proteins; settings: cited from earlier work
[11] = biological target: T3, CYP3A4 (Homo sapiens, UniProt P08684); settings: read-out: IC50 for CYP marker reaction; P450-Glo marker reaction
[12] = biological target: CYP3A7 (Homo sapiens, UniProt P24462); assay: Steady-state metabolism of R- and S-warfarin by recombinant CYP3A7
Description: (§5) Reactions were initiated upon addition of an NADPH regenerating system [2 μU μL-1 glucose 6-phosphate dehydrogenase, 10 mM glucose 6-phosphate, 2 mM MgCl2, 1 mM NADP^+]. […] The quenched reactions were centrifuged and the resulting supernatant containing substrate and products resolved and quantified by UPLC-MS/MS. Each experiment was performed in at least 4 independent experimental replicates.
(§6) The flow rate was constant at 250 μL/min. […] Electrospray conditions were as follows: spray voltage of 4500 V, sheath gas pressure 45, auxiliary gas pressure 20, and collision energy of 15-15 eV (compound specific).
(§7) Final metabolite concentrations were calculated from the ratio of metabolite area to internal standard area in the sample and compared to calibration curves as determined from the UPLC-MS/MS method. All compounds were quantified relative to authentic standards. The resulting kinetic data were analyzed with GraphPad Prism 5® software. Non-linear regression analysis was used to fit steady-state data to the Michaelis-Menten equation to determine the Vmax and Km parameters.

[13] = biological target: T3, CYP3A4; assay: Steady-state metabolism of R- and S-warfarin by recombinant CYP3A4
Description: as §5, §6, §7

[14] = based on S-6-hydroxywarfarin formation
[15] = 7-hydroxywarfarin formation as marker
[16] = 10-hydroxywarfarin formation, 37° C, pH 7.4

Chain of CYP3A7 (P24462 whole entry): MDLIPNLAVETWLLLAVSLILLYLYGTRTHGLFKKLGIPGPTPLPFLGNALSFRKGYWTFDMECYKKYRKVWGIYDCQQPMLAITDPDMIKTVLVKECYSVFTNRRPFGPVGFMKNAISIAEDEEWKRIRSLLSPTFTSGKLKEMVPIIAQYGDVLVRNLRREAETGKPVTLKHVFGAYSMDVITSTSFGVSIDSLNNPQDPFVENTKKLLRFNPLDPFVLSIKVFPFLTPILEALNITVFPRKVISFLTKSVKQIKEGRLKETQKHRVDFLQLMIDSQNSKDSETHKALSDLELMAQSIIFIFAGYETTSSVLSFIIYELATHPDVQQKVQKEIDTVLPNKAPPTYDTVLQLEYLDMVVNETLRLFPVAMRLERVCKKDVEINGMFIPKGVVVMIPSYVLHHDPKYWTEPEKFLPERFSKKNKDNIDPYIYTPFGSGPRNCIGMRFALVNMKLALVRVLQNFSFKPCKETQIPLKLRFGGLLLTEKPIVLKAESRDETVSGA
T3 sequence (P08684 whole entry): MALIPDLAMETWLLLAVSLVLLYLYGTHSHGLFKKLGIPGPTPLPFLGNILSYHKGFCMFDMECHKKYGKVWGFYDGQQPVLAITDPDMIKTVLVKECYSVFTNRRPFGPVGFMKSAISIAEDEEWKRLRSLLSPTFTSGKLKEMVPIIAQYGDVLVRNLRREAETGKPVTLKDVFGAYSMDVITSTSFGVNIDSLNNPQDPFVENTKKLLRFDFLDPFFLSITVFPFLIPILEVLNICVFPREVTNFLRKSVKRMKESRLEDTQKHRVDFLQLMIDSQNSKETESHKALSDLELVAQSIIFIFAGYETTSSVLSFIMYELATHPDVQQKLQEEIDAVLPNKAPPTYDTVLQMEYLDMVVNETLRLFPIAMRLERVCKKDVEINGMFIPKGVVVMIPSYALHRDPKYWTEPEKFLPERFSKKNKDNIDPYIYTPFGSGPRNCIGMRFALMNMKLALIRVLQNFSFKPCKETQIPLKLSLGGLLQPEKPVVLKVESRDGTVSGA
Chain of CYP2C9 (P11712 whole entry): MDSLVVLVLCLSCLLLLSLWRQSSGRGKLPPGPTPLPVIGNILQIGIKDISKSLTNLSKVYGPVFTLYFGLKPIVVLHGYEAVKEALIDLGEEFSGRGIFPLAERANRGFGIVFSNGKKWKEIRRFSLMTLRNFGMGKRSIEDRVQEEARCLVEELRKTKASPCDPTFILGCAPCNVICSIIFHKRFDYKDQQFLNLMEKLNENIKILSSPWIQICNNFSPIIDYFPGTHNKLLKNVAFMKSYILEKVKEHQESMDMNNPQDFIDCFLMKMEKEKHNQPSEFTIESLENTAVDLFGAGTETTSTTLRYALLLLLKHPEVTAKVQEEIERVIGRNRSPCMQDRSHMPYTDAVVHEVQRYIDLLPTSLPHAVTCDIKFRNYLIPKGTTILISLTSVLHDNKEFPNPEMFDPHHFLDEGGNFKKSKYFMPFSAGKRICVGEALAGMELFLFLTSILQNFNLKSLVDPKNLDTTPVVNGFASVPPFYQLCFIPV
Chain of CYP2C9 present in the human liver microsomes (P11712 whole entry): as above
Chain of UGT1A10 (Q9HAW8 26-530): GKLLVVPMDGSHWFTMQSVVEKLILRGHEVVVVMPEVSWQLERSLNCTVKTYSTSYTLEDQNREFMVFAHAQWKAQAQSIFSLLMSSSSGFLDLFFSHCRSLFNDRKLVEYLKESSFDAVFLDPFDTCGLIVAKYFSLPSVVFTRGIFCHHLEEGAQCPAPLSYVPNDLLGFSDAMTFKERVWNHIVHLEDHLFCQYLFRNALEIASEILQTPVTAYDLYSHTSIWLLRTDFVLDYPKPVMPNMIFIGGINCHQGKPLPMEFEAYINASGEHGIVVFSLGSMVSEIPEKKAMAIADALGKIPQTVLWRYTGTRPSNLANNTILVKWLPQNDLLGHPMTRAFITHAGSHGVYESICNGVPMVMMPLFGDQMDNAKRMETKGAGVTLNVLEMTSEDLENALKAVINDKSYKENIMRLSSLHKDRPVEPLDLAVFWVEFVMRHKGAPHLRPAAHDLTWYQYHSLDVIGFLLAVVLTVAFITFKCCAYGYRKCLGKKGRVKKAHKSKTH
Chain of UGT1A1 (P22309 26-533): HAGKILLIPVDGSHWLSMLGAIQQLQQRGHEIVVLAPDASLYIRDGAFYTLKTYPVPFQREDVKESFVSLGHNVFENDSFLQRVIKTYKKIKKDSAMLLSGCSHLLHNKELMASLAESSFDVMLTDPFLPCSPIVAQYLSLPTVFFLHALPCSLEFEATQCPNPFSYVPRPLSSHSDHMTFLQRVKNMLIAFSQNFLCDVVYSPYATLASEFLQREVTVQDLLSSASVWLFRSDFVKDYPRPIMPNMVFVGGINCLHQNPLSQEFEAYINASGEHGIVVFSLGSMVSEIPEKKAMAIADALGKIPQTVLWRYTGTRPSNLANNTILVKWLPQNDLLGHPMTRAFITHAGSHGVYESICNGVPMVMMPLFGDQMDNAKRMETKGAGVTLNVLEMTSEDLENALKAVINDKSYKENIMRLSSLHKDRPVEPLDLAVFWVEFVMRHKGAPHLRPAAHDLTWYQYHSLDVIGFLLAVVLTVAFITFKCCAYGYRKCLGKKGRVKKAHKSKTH

SMILES	IC50 [1] [µM]	IC50 [2] [µM]	mean unbound concentration in human plasma (estimated) [5] [ng/mL]	IC50 [6] [µM]	% R ([7]; patient F84) [%]	% S (proportion in (S)-enantiomeric form) ([7]; patient F84) [%]	% conjugated (proportion glucuronidated) ([7]; patient F84) [%]	urinary concentration ([7]; patient F84) [nM]	% R ([7]; patient F85) [%]	% S (proportion in (S)-enantiomeric form) ([7]; patient F85) [%]	urinary concentration ([7]; patient F85) [nM]	% R ([7]; patient F87) [%]	% S (proportion in (S)-enantiomeric form) ([7]; patient F87) [%]	urinary concentration ([7]; patient F87) [nM]	plasma protein binding affinity relative to warfarin [10]	IC50 [11] [µM]	Ki [8, 15] [µM]	Mechanism of inhibition [8, 15]	Ki [9, 15] [µM]	further results
CC(=O)CC(c1ccccc1)c1c(O)c2ccc(O)cc2oc1=O (stereo not shown) [7-OH-WAR, 7-hydroxywarfarin]	35	400	6.2	45.7	80	20	69	1964	38	62	2404	52	48	724	three- to four-fold lower affinity	> 500	–	–	–	Km [3]: 58.8 ± 24 µM; Vmax [3]: 1.3 ± 0.1 nmol/mg protein/min; Km [4]: 220 ± 40 µM; Vmax [4]: 1.0 ± 0.1 nmol/mg protein/min; % conjugated (proportion glucuronidated) ([7]; patient F85): 28%; % conjugated (proportion glucuronidated) ([7]; patient F87): 14%; Ki [8, 14]: 64 µM; Mechanism of inhibition [8, 14]: Competitive; Ki, fold higher than the marker Km ([8]; human liver microsomes): 8.5 fold; Ki [9, 14]: 10 µM; Mechanism of inhibition [9, 14]: Competitive; Ki, fold higher than the marker Km ([9]; recombinant CYP2C9): 4.5 fold
CC(=O)CC(c1ccc(O)cc1)c1c(O)c2ccccc2oc1=O (stereo not shown) [4′-OH-WAR, 4′-hydroxywarfarin]	9.3	> 3000	–	8.4	64	56	47	140	25	75	94	30	70	20	affinity comparable to warfarin	39	17	Competitive	17	Mechanism of inhibition [9, 15]: Mixed; Ki ([9]; 7-hydroxywarfarin formation as marker, mixed inhibition): 133 µM
CC(=O)C[C@@H](c1ccccc1)c1c(O)c2ccc(O)cc2oc1=O [(S)-7-OH-WAR, (S) 7-hydroxywarfarin]	–	–	–	–	–	–	–	–	–	–	–	–	–	–	–	–	–	–	–	share of (S)-WAR P450 metabolites measured [7]: 61-71%
CC(=O)C[C@@H](c1ccccc1)c1c(O)c2cccc(O)c2oc1=O [(S)-8-OH-WAR, (S) 8-hydroxywarfarin]	–	–	–	–	–	–	–	–	–	–	–	–	–	–	–	–	–	–	–	share of (S)-WAR P450 metabolites measured [7]: 4-20%
CC(=O)C[C@@H](c1ccccc1)c1c(O)c2ccccc2oc1=O [S-warfarin, (S) warfarin, reference compound]	–	–	2.7	–	–	–	–	–	–	–	–	–	–	–	–	–	–	–	–	Km ([12]; 4′-hydroxywarfarin formation): 2280 µM; Vmax ([12]; 4′-hydroxywarfarin formation): 321 pmol product/min/nmol P450; Km ([12]; 10-hydroxywarfarin formation): 81 µM; Vmax [12, 16]: 22 pmol product/min/nmol P450; Km ([13]; 4′-hydroxywarfarin formation): 27 µM; Vmax ([13]; 4′-hydroxywarfarin formation): 64 pmol product/min/nmol P450; Km ([13]; 10-hydroxywarfarin formation): 26 µM; Vmax [13, 16]: 76 pmol product/min/nmol P450
CC(=O)C(O)C(c1ccccc1)c1c(O)c2ccccc2oc1=O (stereo not shown) [10-OH-WAR, 10-hydroxywarfarin]	1.6	–	5.8	2	–	–	–	–	–	–	–	–	–	–	–	–	2.2	Competitive	0.94	detection in urine specimens ([7]; any of the three specimens): not detected; Ki, fold lower than the microsomal Km for S-warfarin ([8]; human liver microsomes): 2.4 fold; Mechanism of inhibition [9, 15]: Competitive; Ki, fold lower than the Km for S-warfarin ([9]; recombinant CYP2C9): approximately 2.5 fold
CC(=O)CC(c1ccccc1)c1c(O)c2cc(O)ccc2oc1=O (stereo not shown) [6-OH-WAR, 6-hydroxywarfarin]	47	1400	–	44.3	65	35	35	560	69	31	1124	62	38	204	three- to four-fold lower affinity	> 500	167	Competitive	> 170	Km [4]: 399 ± 130 µM; Vmax [4]: 3.1 ± 0.4 nmol/mg protein/min; % conjugated (proportion glucuronidated) ([7]; patient F85): 15%; % conjugated (proportion glucuronidated) ([7]; patient F87): 12%; Ki, fold higher than the marker Km ([8]; human liver microsomes): approximately 32 fold; Mechanism of inhibition ([9]; 7-hydroxywarfarin formation as marker, listed as 6-hydroxywarfarin): no inhibition was observed; Mechanism of inhibition ([9]; 7-hydroxywarfarin formation as marker, listed as 6OHWAR): None

From patent US20100273203A1 (priority 2009, published 2010)
